System: rat RT2 glioma cells
Experiment: MTT growth/toxicity assay of adenovirus-infected RT2 cells exposed to GCV or ACV
Assay type: cell-based
Details: 1-100 microM; for effect of prodrug on cell growth/toxicity (MTT): control AdCMV (empty vector)-infected RT2 cells, 5 days
Description: FIG. 2. Mutant HSV-TK75 sensitizes rat RT2 glioma cells to GCV and ACV more efficiently than wild type HSV-TK. Rat RT2 cells were infected with AdCMV (empty vector), AdCMV-TK, or AdCMV-TK75. At 2 days postinfection, cells were trypsinized, serially diluted, seeded in microtiter plates, and exposed to various doses of ACV or GCV. After 5 days, the plates were processed for growth/toxicity by MTT assay. (Contessa et al., 1999). Values were normalized to values from cells that were infected but not treated with GCV or ACV.
RT2 cells (a rat glioma cell line derived from Fischer 344 rats (Wilfong et al. 1973) that form tumors with features typical of human glioblastoma (Mahaley et al, 1977) were cultured in Dulbecco's modified Eagle's medium with 10% fetal bovine serum supplemented with penicillin/strepto-mycin. (Brust et al., 2000). Infected cells were exposed to Zovirax/ACV (manufactured by Glaxo Wellcome, Chapel Hill, N.C.) or GCV (kindly provided by Syntex, Palo Alto, Calif.) added to the medium. Cells were irradiated in medium with a ^60Co γ irradiator (Picker Zonegard V4 M60; Picker Interational, Cleveland, Ohio) set at 1 Gy/minute. Cell viability was determined by the 3-(4,5-dimethylthiazol-2-yl)-2,5-[…] bromide (MTT) assay. (Contessa et al, 1999). Terminal deoxynucleotidyltransferase-mediated deoxyuridine triphosphate nick end labeling assays were carried out with an ApopTag Direct kit from Oncor (Gaithersburg, Md.), according to the manufacturer's instructions, to provide a measurement of apoptosis.
It was subsequently determined whether infection of RT2 cells with the adenovirus expressing mutant HSV-TK 75 was able to predispose RT2 cells to killing by GCV and ACV more efficiently than cells infected with virus expressing wild type HSV-TK. At 2 days postinfection, infected cells were exposed to increasing concentrations (1-100 microM) of either GCV or ACV. As a control, we used an adenovirus(AdCMV) carrying no transgene.

SMILES	cell killing, comparison of prodrugs (AdCMV-TK-infected RT2 cells)	effect of prodrug on cell growth/toxicity (MTT)
Nc1nc(O)c2ncn(COC(CO)CO)c2n1 [GCV, ganciclovir]	more effective than with ACV	little to no effect
Nc1nc2c(ncn2COCCO)c(=O)[nH]1 [ACV, acyclovir]	–	little to no effect
